Assay results: article PMC3225327 (Journal of Biomedical Science, 2011)

Legend:
PDE4H = conditions: cited from earlier work
PDE4L = conditions: cited from earlier work
[1] = cited from earlier work
[2] = tested on: xylazine/ketamine-induced anesthesia; design: method as in PMID 11786486; conditions: rats; cited from earlier work
emesis = tested on: emesis; design: method as in PMID 11114405; conditions: ferrets; cited from earlier work
PDE4 [3] = experiment: Inhibition of PDE4 activity, two-step procedure and Lineweaver-Burk analysis; format: biochemical, guinea pig
Description: (§1) Activities of PDE1~5 in the homogenate of guinea pig lungs or hearts were measured by a two-step procedure according to the previous method, using cAMP with [^3H]-cAMP or cGMP with [^3H]-cGMP as substrates. […] The reagents and homogenate were mixed on ice, and the reaction was initiated by transferring the mixture to a water bath at 37°C. Following a 30-min incubation, the reaction was stopped by transferring the reaction vessel to a bath of boiling water for 3 min. After cooling on ice, 20 μl of a 1 mg/ml solution of Crotalus atrox snake venom was added to the reaction mixture, and the mixture was incubated at 37°C for 10 min. Unreacted [^3H]-cAMP or [^3H]-cGMP was removed by the addition of 500 μl of a 1-in-1 Tris-HCl (40 mM) buffer suspension of Dowex resin (1 × 8-200) with incubation on ice for 30 min. Each tube was then centrifuged at 3700 g for 2 min, and 150 μl of the supernatant was removed for liquid scintillation counting. […] The total protein in each fraction used was assayed according to a previous method. PDE activities are reported as nmol/mg/min.

[4] = tested on: high-affinity rolipram-binding sites (HARBSs) of guinea pig brain cell membranes; experiment: Displacement of 2 nM [3H]-rolipram from high-affinity rolipram-binding sites (PDE4H); conditions: 2 nM [3H]-rolipram, 30°C, 1 h; read-out: EC50 (PDE4H) for displacing [3H]-rolipram binding
Description: When the above-mentioned guinea pigs were sacrificed, the whole brains were removed and homogenized with a glass/Teflon homogenizer (Glas-Col, Terre Haute, IN, USA) in 10 volumes of cold medium (pH 6.5) containing 20 mM Bis-Tris, 2 mM benzamidine, 2 mM EDTA, 50 mM sodium chloride, 0.1 mM PMSF, and 1 mM dithiothreitol. At 4°C, the homogenate was centrifuged at 170 g for 5 min to remove connective tissues and blood vessels. The suspended homogenate was then re-centrifuged at 40,000 g for 30 min to separate the cytosolic and particulate portions. The particulate portion was re-suspended in a suspension at a concentration of 400 mg/ml (wet weight/volume), after washing three times with homogenizing buffer. The particulate portion mainly consisted of cell membranes. […] Briefly, the reaction buffer consisted of 50 mM Tris-HCl and 5 mM MgCl2 (pH 7.5). […] After 1 h, the reaction was terminated by moving the reaction vessel into crushed ice. Then the reaction mixture was transferred onto Whatman GF/B glass-fiber filters, which were soaked in a 0.3% polyethyleneimine solution in a mini-funnel.

[5] = tested on: duration of xylazine/ketamine-induced anesthesia; experiment: Xylazine/ketamine-induced anesthesia; conditions: 0.25 h before anesthesia
Description: After loss of the righting reflex (i.e., when a mouse remained on its back and no longer spontaneously righted itself to a prone position), the duration of anesthesia was measured until its return as the endpoint.

PDE4 subtypes (A~D) = tested on: PDE4 subtypes (A~D); design: method as in PMID 16458289; conditions: cited from earlier work
PDE4 [6] = tested on: PDE4; design: method as in PMID 15476679; conditions: cited from earlier work
[7] = tested on: ovalbumin-induced airway inflammation; design: method as in PMID 21287361; conditions: compared with the ovalbumin-induced group; H&E and alcian blue-PAS staining; cited from earlier work
PDE3 = experiment: Inhibition of PDE3 activity, two-step procedure; format: biochemical; conditions: homogenate of guinea pig lungs or hearts
Description: as §1

PDE1 = experiment: Inhibition of PDE1 activity, two-step procedure; format: biochemical; conditions: homogenate of guinea pig lungs or hearts
Description: as §1

For `O=C(Nc1c(Cl)cncc1Cl)C(=O)c1cn(Cc2ccc(F)cc2)c2ccc(O)cc12` [AWD 12-281, N-(3,5-dichloro-pyrid-4-yl)-[1-(4-fluorobenzyl)-5-hydroxy-indole-3-yl]-glyoxylic acid amide], the PDE4H value (PDE4H) is listed as 104 nM, the PDE4H/PDE4L ratio (PDE4H) is listed as “approximately 11” and the PDE4L value (PDE4L) is listed as 9.7 nM. The “efficacy in clinical trials for asthma and COPD” value [1] was “lack of efficacy”.
For `COc1cccc(Nc2c(C(N)=O)cnc3c(C)cc(S(=O)(=O)c4cccc(C(=O)N(C)C)c4)cc23)c1` [GSK256066], the “efficacy in trials in asthma” value ([1]; inhaled) is listed as “demonstrated efficacy”.
In the case of `CN1CC[C@]2(CCN3CCc4c(oc5ccccc45)[C@@H]3C2)N(C)C1=O.Cl` [MK-912], the “effect on xylazine/ketamine-induced anesthesia” value [2] is given as “reverse xylazine/ketamine-induced anesthesia” and the vomiting (emesis) is given as “trigger vomiting”.
With `CCCCOc1cc(CC2CNC(=O)N2)ccc1OC` (centres unmarked) [Ro 20-1724, 4-(3-butoxy-4-methoxybenzyl)-2-imidazolidinone, reference compound] the “mode of PDE4 inhibition” value (PDE4 [3]; Lineweaver-Burk analysis, inhibitor 1~10 μM) was “competitively inhibited”, the Ki (PDE4 [3]; Lineweaver-Burk analysis, inhibitor 1~10 μM, substrate cAMP, read-out: dissociation constant for inhibitory binding (Ki), PDE4) was 8.1 ± 2.4 µM and the IC50 (PDE4 [3]; homogenate of guinea pig lungs or hearts) was 4.3 ± 2.1 µM. It also gave an EC50 [4] of 0.087 ± 0.029 µM.
In the case of `COc1ccc(C2CNC(=O)C2)cc1OC1CCCC1` (centres unmarked) [Rolipram, rolipram], the “effect on duration of xylazine/ketamine-induced anesthesia” value ([5]; 0.01~1 μmol/kg s.c.) is reported as “dose-dependently shortened”, the “effect on duration of xylazine/ketamine-induced anesthesia” value ([5]; 0.01~1 μmol/kg s.c., listed as rolipram) is reported as “reversed the anesthesia” and the “effect on duration of xylazine/ketamine-induced anesthesia” value ([5]; 0.1 and 1 μmol/kg s.c.) is reported as “significantly shortened”. The PDE4H/PDE4L ratio (PDE4H) was 0.01~0.001.
For `CCOc1cc([C@@H](CS(C)(=O)=O)N2C(=O)c3cccc(NC(C)=O)c3C2=O)ccc1OC` [apremilast], the “efficacy in severe plaque-type psoriasis” value ([1]; oral) is listed as “effective”.
In the case of `COc1ccc([C@]2(C#N)CC[C@@H](C(=O)O)CC2)cc1OC1CCCC1` [cilomilast], the PDE4H value (PDE4H) is listed as 117.8 nM, the PDE4H/PDE4L ratio (PDE4H) is listed as 1 and the PDE4L value (PDE4L) is listed as 120 nM. The “selectivity among PDE4 subtypes” value (PDE4 subtypes (A~D)) was “higher potency for PDE4D compared to PDE4A and PDE4B” and the “tolerability: diarrhea and nausea” value ([1]; COPD phase III study, 15 mg twice daily over 6 months) was “higher frequencies of diarrhea and nausea than a placebo”.
In the case of `Clc1cccc(Cl)c1N=C1NCCN1` [clonidine], the “effect on emesis induced by PDE4 inhibitors” value (emesis) is listed as “prevented emesis”.
For `COc1ccc(C2CC(=O)c3c(O)cc(O)cc3O2)cc1O` (centres unmarked) [hesperetin, 5,7,3'-trihydroxy-4'-methoxyflavanone], the “selectivity of PDE inhibition” value (PDE4 [6]) is given as “selectively inhibit PDE4 activity”.
In the case of `COc1ccc([C@@H]2CC(=O)c3c(O)cc(O[C@@H]4O[C@H](CO[C@@H]5O[C@@H](C)[C@H](O)[C@@H](O)[C@H]5O)[C@@H](O)[C@H](O)[C@H]4O)cc3O2)cc1O` [hesperidin], the “effect on inflammatory cell infiltration and mucus hypersecretion in lung” value [7] is given as “inhibit inflammatory cell infiltration and mucus hypersecretion”.
Work on `Cc1[nH]c(=O)c(C#N)cc1-c1ccncc1` [milrinone, reference compound] yielded an IC50 (PDE3) of 2.5 ± 1.6 µM.
For `O=C(Nc1c(Cl)cncc1Cl)c1ccc(OC(F)F)c(OCC2CC2)c1` [roflumilast], the PDE4H value (PDE4H) is given as 2.4 nM, the PDE4H/PDE4L ratio (PDE4H) is given as 3 and the PDE4L value (PDE4L) is given as 0.8 nM. The “selectivity among PDE4 subtypes” value (PDE4 subtypes (A~D)) was “non-selective for these four PDE4 subtypes”, the “mean pre- and post-bronchodilator FEV1” value ([1]; patients with moderate-to-severe COPD, compared to placebo) was “significantly improve” and the “nausea, diarrhea, weight loss, and headaches” value ([1]; patients with moderate-to-severe COPD) was “more frequent”.
In the case of `CCOC(=O)C1=C[C@]2(CC)CCCN3CCc4c(n1c1ccccc41)[C@@H]32` [vinpocetin, Vinpocetine, reference compound], the IC50 (PDE1) is reported as 42.3 ± 5.8 µM.
